Laboratory results reported in the supplement of paper PMC10307832.

Legend:
Test in all cases: relative viability (nuclei count vs DMSO), 5 days (fraction); higher = more cells survive
BGJ398 + Lapatinib = compound: CCN1CCN(c2ccc(Nc3cc(N(C)C(=O)Nc4c(Cl)c(OC)cc(OC)c4Cl)ncn3)cc2)CC1 [BGJ398] + CS(=O)(=O)CCNCc1ccc(-c2ccc3ncnc(Nc4ccc(OCc5cccc(F)c5)c(Cl)c4)c3c2)o1 [Lapatinib] (partner 2 µM)
Summary of the method: (§1)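 Each reported value is a median over duplicate plates. It expresses relative viability: treated-well nuclei count divided by vehicle-well nuclei count. Lung cancer cell lines in 1536-well plates were dosed by pin tool a day after seeding, alone with one drug or with a fixed anchor-drug dose plus five library-drug doses (not always all listed) in √10 steps, and nuclei were counted after 5 days.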

[1] = compound: C1=CC2=NC=CN=C2C=C1/C=C/3\C(=O)NC(=O)S3 + N=C(N)NC(=N)NCCc1ccccc1 [Phenformin] (partner 250 µM)
Summary of the method: as §1

[2] = compound: C1=CC2=NC=CN=C2C=C1/C=C/3\C(=O)NC(=O)S3 + O=C(CCCCCCC(=O)Nc1ccccc1)NO [Vorinostat] (partner 1 µM)
Summary of the method: as §1

BGJ398 + Vorinostat = compound: CCN1CCN(c2ccc(Nc3cc(N(C)C(=O)Nc4c(Cl)c(OC)cc(OC)c4Cl)ncn3)cc2)CC1 [BGJ398] + O=C(CCCCCCC(=O)Nc1ccccc1)NO [Vorinostat] (partner 1 µM)
Summary of the method: as §1

Cell Line	relative viability (BGJ398 + Lapatinib; first compound 0.01 µM)	relative viability (BGJ398 + Lapatinib; first compound 0.03162 µM)	relative viability (BGJ398 + Lapatinib; first compound 0.1 µM)	relative viability (BGJ398 + Lapatinib; first compound 0.3162 µM)	relative viability (BGJ398 + Lapatinib; first compound 1 µM)	relative viability ([1]; first compound 0.02 µM)	relative viability ([1]; first compound 0.06325 µM)	relative viability ([1]; first compound 0.2 µM)	relative viability ([1]; first compound 0.6325 µM)	relative viability ([1]; first compound 2 µM)	relative viability ([2]; first compound 0.02 µM)	relative viability ([2]; first compound 0.06325 µM)	relative viability ([2]; first compound 0.2 µM)	relative viability ([2]; first compound 0.6325 µM)	relative viability ([2]; first compound 2 µM)	relative viability (BGJ398 + Vorinostat; first compound 0.01 µM)	relative viability (BGJ398 + Vorinostat; first compound 0.03162 µM)	relative viability (BGJ398 + Vorinostat; first compound 0.1 µM)	relative viability (BGJ398 + Vorinostat; first compound 0.3162 µM)	relative viability (BGJ398 + Vorinostat; first compound 1 µM)
NCI-H1975	0.915	0.903	0.859	0.899	0.785	0.406	0.448	0.408	0.402	0.312	0.683	0.734	0.735	0.731	0.674	0.677	0.794	0.758	0.677	0.672
CAL-12T	0.661	0.685	0.763	0.726	0.585	0.577	0.479	0.562	0.517	0.546	0.78	0.923	0.663	0.629	0.762	0.666	1.08	0.703	0.895	0.941
NCI-H1623	–	–	–	–	–	0.553	0.675	0.622	0.608	0.494	–	–	–	–	–	–	–	–	–	–
HCC-44	0.973	1.01	1.01	1.04	0.993	0.314	0.212	0.202	0.153	0.122	0.959	1.13	1.08	1.13	1.17	1.12	1.14	1.14	1.1	1.09
EKVX	0.178	0.199	0.204	0.201	0.169	0.216	0.22	0.239	0.223	0.225	0.704	0.576	0.761	0.709	0.594	0.701	–	0.921	0.691	0.728
NCI-H1651	0.796	0.897	0.962	0.693	0.676	0.314	0.321	0.325	0.298	0.285	0.504	0.502	0.6	0.588	0.483	0.473	0.544	0.554	0.579	0.405
NCI-H1944	0.784	0.813	0.84	0.78	0.603	0.187	0.188	0.199	0.204	0.155	0.515	0.511	0.551	0.536	0.512	0.525	0.529	0.55	0.49	0.471
NCI-H1703	0.988	1.32	1.04	1.05	1.36	–	–	–	–	–	–	–	–	–	–	–	–	–	–	–
Calu-6	1.04	1.13	1.07	1.09	1.03	–	–	–	–	–	–	–	–	–	–	–	–	–	–	–
EBC-1	0.215	0.222	0.178	0.23	0.21	–	–	–	–	–	–	–	–	–	–	–	–	–	–	–
SW 1573	1.03	1.12	1.08	1.02	0.984	0.377	0.443	0.429	0.323	0.287	0.519	1.09	0.658	0.868	0.444	0.742	0.796	0.713	0.854	0.786
A-427	1.07	1.01	1.05	0.938	0.949	0.291	0.247	0.374	0.332	0.261	0.791	0.877	0.888	0.864	0.947	0.909	0.953	0.895	0.698	0.713
NCI-H2347	0.913	1.02	0.944	0.926	0.893	0.352	0.322	0.422	0.394	0.375	0.53	0.565	0.718	0.49	0.591	0.63	0.763	0.606	0.55	0.608
NCI-H1355	0.936	1.05	1.01	0.95	0.644	0.435	0.374	0.489	0.431	0.392	0.584	0.571	0.623	0.631	0.519	0.576	0.626	0.695	0.607	0.49
NCI-H358	0.452	0.43	0.442	0.386	0.519	0.41	0.382	0.356	0.283	0.149	0.674	0.714	0.725	0.659	0.579	0.614	0.769	0.704	0.635	0.824
PC-3 [JPC-3]	0.44	–	0.412	0.478	0.348	0.478	0.542	0.467	0.487	0.487	0.939	0.874	0.92	0.766	0.654	1.04	–	0.52	–	0.705
NCI-H2228	1.01	1.24	0.742	1	1.04	0.281	0.329	0.445	0.361	0.213	0.844	0.821	0.616	0.572	0.719	0.583	0.761	0.706	0.531	0.542
HOP-62	0.965	1.16	1.18	1.02	1.04	0.549	0.643	0.695	0.646	0.622	0.571	0.694	0.732	0.581	0.571	0.694	0.618	0.626	0.575	0.602
HARA	0.67	0.531	0.472	0.362	0.217	0.451	0.384	0.395	0.428	0.422	0.548	0.463	0.522	0.487	0.406	0.63	0.51	0.669	0.598	0.593
